Measurements from publication PMC4192545, “Suramin Inhibits Hsp104 ATPase and Disaggregase Activity” (PLoS ONE, 2014).
Counter-ions that a name gives are not always drawn. Like-named read-outs stand apart in the source and are kept apart here.

Assays:
[1] = molecular target: T1, Hsp104 (Saccharomyces cerevisiae, UniProt P31539); test: High-throughput Hsp104 ATPase plate assay (malachite green, 384-well); type: biochemical, yeast; details: for inhibition at 10 µM: read-out: % Inhibition of Hsp104 ATP hydrolysis
T1 construct: made in house; host or cells: E. coli BL21-DE3 RIL
T1 sequence (P31539 whole entry): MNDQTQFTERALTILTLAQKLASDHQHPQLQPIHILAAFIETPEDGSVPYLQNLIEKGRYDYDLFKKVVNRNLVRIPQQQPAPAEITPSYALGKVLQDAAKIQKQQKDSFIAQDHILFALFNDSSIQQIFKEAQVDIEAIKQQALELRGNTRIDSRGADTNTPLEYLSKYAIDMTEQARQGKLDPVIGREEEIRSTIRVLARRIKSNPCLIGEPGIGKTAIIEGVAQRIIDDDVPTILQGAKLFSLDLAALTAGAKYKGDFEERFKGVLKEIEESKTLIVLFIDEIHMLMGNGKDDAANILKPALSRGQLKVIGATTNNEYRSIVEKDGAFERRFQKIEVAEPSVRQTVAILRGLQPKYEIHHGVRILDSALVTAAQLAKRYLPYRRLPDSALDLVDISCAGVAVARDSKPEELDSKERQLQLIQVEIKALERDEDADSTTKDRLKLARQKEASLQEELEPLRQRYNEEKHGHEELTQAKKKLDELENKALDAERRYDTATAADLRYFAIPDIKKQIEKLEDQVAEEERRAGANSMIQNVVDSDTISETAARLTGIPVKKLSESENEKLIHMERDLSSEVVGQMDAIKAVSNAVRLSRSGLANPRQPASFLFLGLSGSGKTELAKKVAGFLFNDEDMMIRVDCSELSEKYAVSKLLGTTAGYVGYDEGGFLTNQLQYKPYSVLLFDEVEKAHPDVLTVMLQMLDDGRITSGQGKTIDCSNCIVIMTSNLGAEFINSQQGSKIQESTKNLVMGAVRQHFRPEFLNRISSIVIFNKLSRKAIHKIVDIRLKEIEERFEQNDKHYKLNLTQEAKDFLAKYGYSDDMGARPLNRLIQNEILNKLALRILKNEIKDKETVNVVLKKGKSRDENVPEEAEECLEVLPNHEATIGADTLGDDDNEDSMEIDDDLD
Experimental: ATPase activity was assessed by the release of inorganic phosphate determined using a malachite green phosphate detection kit (Innova Biosciences, Cambridge, United Kingdom). Microtiter plates (384-well) were purchased from PerkinElmer (Waltham, MA). Three libraries were screened: The NIH Clinical Collection (450 small molecules), the Spectrum Collection (2,000 compounds, MicroSource, Gaylordsville, CT) and the HitFinder Collection (14,400 compounds, Maybridge).
We adapted the inorganic phosphate colorimetric assay to fit a 384-well plate format. A Ź-factor between 0.8 and 1 was calculated for the assay. A 2X Hsp104 stock solution was dispensed into each well using a Biotek microflo (Biotek Instruments, Winooski, VT). Compounds were then transferred using a Janus 96/384 Modular Dispensing Tool (PerkinElmer). Finally, a 2X ATP solution was dispensed using the Biotek microflo. Final concentrations of Hsp104 (monomer) and ATP were 0.25 µM and 1 mM respectively. Seeking to avoid the discovery of competitive inhibitors, we designed our high-throughput screen to use a 100-fold excess of ATP with respect to the test compounds (10 µM each). Final buffer conditions were 20 mM HEPES-KOH pH 7.4, 20 mM NaCl and 10 mM MgCl2. The ATPase reaction was allowed to continue for 60 min, at which time the reaction was terminated by addition of the colorimetric reagent. Absorbance was measured at 635 nm on an EnVision Xcite Multilabel plate reader (PerkinElmer). Hits were tested in duplicate. […] Ten of these were subjected to a 6-point titration (40, 13.3, 4.44, 1.45, 0.49 and 0 µM) in the absence or presence of Triton X-100, BSA, or both Triton X-100 and BSA at the specified concentrations. Heat maps were created in Excel for Mac 2011 (Microsoft Corporation) using the Conditional Formatting feature (Color Scales).
We aimed to identify small molecules capable of inhibiting Hsp104. To do so, we employed high-throughput screening using Hsp104 ATPase activity as a proxy for function. To detect changes in Hsp104 ATPase activity, we used a colorimetric assay detecting free inorganic phosphate (Pi) based on the formation of a colored complex between Pi and a dye molecule under acidic conditions, [44]. Pi is produced from the Hsp104-driven hydrolysis of ATP. The colored complex concentration, a surrogate for Pi concentration and ATPase rate, is determined by measuring the absorbance of a sample at 635 nm. We used recombinant Hsp104 purified from E. coli. An Hsp104 mutant with mutations in both NBD1 and NBD2 Walker B sequence motifs (Hsp104^DWB, carrying ATPase ablating mutations E285Q: E687Q) was used as a negative control for ATPase activity. Hsp104^WT activity results in a high A635 (high ATPase), while Hsp104^DWB activity results in a low A635 (low ATPase). We optimized the Pi colorimetric assay to fit a 384-well plate format. We selected the Hsp104 concentration (0.25 µM) on the basis of previous experience in our laboratory. The ATP concentration was selected to be in a 100-fold excess of ATP with respect to the test compounds. […] We screened 16,850 compounds from the NIH Clinical Collection as well as the Spectrum and Maybridge compound libraries. […] For instance, hexachlorophene and tannic acid inhibit Hsp104 ATPase activity by ∼80%, while Merbromin and Sennoside a inhibit by ∼20% ( Table 1 ).

[2] = molecular target: T2, Hsp104^WT (Saccharomyces cerevisiae, UniProt P31539); test: Manual ATPase assay, Hsp104^WT; type: biochemical, yeast; details: 60 min, ATP 1 mM
T2 construct: made in house; host or cells: E. coli BL21-DE3 RIL
T2 sequence (P31539 whole entry): as above
Experimental: Wild-type or mutant Hsp104 (0.25 µM monomer) in ATPase buffer (20 mM HEPES-KOH pH 7.4, 20 mM NaCl and 10 mM MgCl2) was incubated for 60 or 10 min at 25°C in the presence of ATP (1 mM) as noted. ATPase activity was assessed by the release of inorganic phosphate determined by using a malachite green phosphate detection kit (Innova).

[3] = molecular target: T1, Hsp104; test: Luciferase disaggregation/reactivation assay, Hsp104 with ATP:ATPγS; type: biochemical, yeast; details: for Normalized Luciferase Refolding Activity: 90 min 25°C, ATP:ATPγS 1:1, Figure 3A
Experimental: Luciferase reactivation was performed as described, [37]. To assemble aggregates, firefly luciferase (50 µM) in luciferase refolding buffer (LRB, 25 mM HEPES-KOH, 7.4, 150 mM KAOc, 10 mM MgAOc, 10 mM DTT) with 6 M urea was incubated at 30°C for 20 min. Luciferase was then rapidly diluted 100-fold into LRB, divided into 100 µL aliquots, snap frozen in liquid N2, and stored at −80°C. For reactivation assays, aggregated luciferase (50 nM) was incubated with Hsp104 (1 µM hexamer), plus 2.6 mM ATPγS, 2.6 mM ATP and an ATP regeneration system (1 mM creatine phosphate, 0.25 µM creatine kinase (Roche Applied Science)) for 90 minutes at 25°C. Luciferase assay system was purchased from Promega. Luciferase activity was assessed by luminescence measured on a Safire^2 microplate reader (Tecan, Männedorf, Switzerland). The half maximal inhibitory concentration (IC50) was calculating by fitting luciferase-refolding data at different Suramin concentrations with Prism (GraphPad Software, Inc., La Jolla, CA).

[4] = test system: Hsp104; details: cited from earlier work
[5] = 10 µM compound, Hsp104 0.25 µM monomer, ATP 1 mM, 60 min, mean ±S.D. (n = 2)

Compound | % Inhibition of Hsp104 ATP hydrolysis [1, 5] | inhibition at 10 µM [1, 5] | also measured
Tannic acid | 79.79±0.29% |  | % Inhibition of Hsp104 ATP hydrolysis ([1]; 10 µM compound, Hsp104 0.25 µM monomer, ATP 1 mM, 60 min, mean ±S.D. (n = 2), listed as tannic acid): ~80%
O=C1C=C2CC3(O)COc4c(ccc(O)c4O)C3=C2C=C1O (centres unmarked) [Hematein] |  |  | inhibition at 10 µM [1]: 45.7 ± 5.95%
N.N.[Cl][Pt][Cl] [Cisplatin, cis-diamminedichloroplatinum (II)] | 76.58±1.06% |  | Effect on Hsp104 ATPase activity (Pi produced), manual assay ([2]; varying concentrations, Figure 2A): unable to replicate the inhibitory effect of Cisplatin outside of the 384-well format; Inhibition of Hsp104 ATPase activity in the presence of both Triton X-100 and BSA ([1]; titration 40-0.49 µM, 60 min, Triton X-100 and BSA, heat map Figure 1A): most significantly inhibit Hsp104 ATPase activity
Cl.N=C(N)N [GdmCl, guanidinium hydrochloride] |  |  | Effect on Hsp104 ATPase activity, manual assay ([2]; 30 mM (highest concentration tested)): only very mildly inhibited Hsp104 ATPase activity; Concentration needed to elicit the same level of inhibition as 100 µM Suramin (complete ablation of luciferase refolding) ([3]; ATP:ATPγS 1:1): 5 mM; Normalized Luciferase Refolding Activity ([3]; GdmCl 1 mM): 0.07; Normalized Luciferase Refolding Activity ([3]; GdmCl 5 mM): 0.01; Normalized Luciferase Refolding Activity ([3]; GdmCl 10 mM): 0.01; Normalized Luciferase Refolding Activity ([3]; GdmCl 20 mM): 0.01; Effect on luciferase reactivation activity of Hsp104 ([3]; all concentrations of GdmCl tested (1-20 mM)): very strongly inhibited the luciferase reactivation activity of Hsp104; Hsp104 ATPase activity remaining ([4]; GdmCl 100 mM): large fraction of Hsp104 ATPase activity remained; Effective concentration for inhibition of Hsp104 activity [4]: effective at millimolar concentrations
CC(=O)O.Cc1cc2c(C(C)C)c(O)c(O)c(C=O)c2c(O)c1-c1c(C)cc2c(C(C)C)c(O)c(O)c(C=O)c2c1O [Gossypol-acetic acid complex] | 47.92±1.30% |  | 
Sucralfate Sodium | 25.67±2.59% |  | 
O=C([O-])c1ccccc1-c1c2cc(Br)c(=O)cc-2oc2[c]([Hg+])c([O-])c(Br)cc12.[Na+].[Na+].[OH-] [Merbromin] | 21.17±3.54% |  | 
O=C(O)C1=CC(=C(c2ccc(O)c(C(=O)O)c2)c2ccc(O)c(C(=O)O)c2)C=CC1=O [Aurin tricarboxylic acid] |  | 24.2 ± 1.41% | 
N.N.O=C([O-])C1(C(=O)[O-])CCC1.[Pt+2] [Carboplatin] | 73.75±1.41% |  | 
C=C1c2cccc(O)c2C(=O)C2=C(O)[C@]3(O)C(=O)C(C(N)=O)=C(O)[C@@H](N(C)C)[C@@H]3[C@@H](O)[C@H]12 [Methacycline hydrochloride] |  | 33.3 ± 2.12% | 
Chlorophyllide Cu Complex Na Salt | 33.79±2.18% |  | 
O=C(O[C@@H]1Cc2c(O)cc(O)cc2O[C@@H]1c1cc(O)c(=O)c2c(O)c(O)cc([C@H]3Oc4cc(O)cc(O)c4C[C@H]3O)c2c1)c1cc(O)c(O)c(O)c1 [Theaflavin monogallates] |  | 57.2 ± 7.19% | 
Oc1c(Cl)cc(Cl)c(Cl)c1Cc1c(O)c(Cl)cc(Cl)c1Cl [Hexachlorophene] | 80.21±1.00% | ~80% | 
O=C(Oc1cc(O)cc2c1C[C@@H](OC(=O)c1cc(O)c(O)c(O)c1)[C@@H](c1cc(O)c(O)c(O)c1)O2)c1cc(O)c(O)c(O)c1 [Epigallocatechin 3,5-digallate] |  | 21.9 ± 2.53% | 
Cc1cc2c(C(C)C)c(O)c(O)c(C=O)c2c(O)c1-c1c(C)cc2c(C(C)C)c(O)c(O)c(C=O)c2c1O [Gossypol] |  |  | inhibition at 10 µM [1]: 42.3 ± 4.83%
O=C(O)c1cc(O)c2c(c1)[C@H]([C@H]1c3cc(C(=O)O)cc(O)c3C(=O)c3c(O[C@@H]4O[C@H](CO)[C@@H](O)[C@H](O)[C@H]4O)cccc31)c1cccc(O[C@@H]3O[C@H](CO)[C@@H](O)[C@H](O)[C@H]3O)c1C2=O [Sennoside a] | 19.92±7.07% | ~20% | 
